In US11633394B2, “Substituted alkynylene compounds as anticancer agents” (Aurigene Oncology Limited, priority 2018, dated 2023):

Assays:
Assay type in all cases: cell-based
NCI-H1792 cells = assay: Anti proliferative activity in NCI-H1792 cells by XTT assay; conditions: Homo sapiens, NCI-H1792, 72 h, H1792 cell line
Description: Example 78: Determination of Anti Proliferative Activity in NCI-H1792 Cells by XTT Assay
NCI-H1792 cells (ATCC CRL-5895) were plated at 2000 cells/well in 96 well flat clear bottom plates (Corning, Cat. No 3596) using complete RPMI media. After 24 hours, compounds of present invention were added to cells from 20 mM stocks made in DMSO (Sigma Cat no. D2650). Each concentration of compound was tested in triplicate with DMSO concentration not exceeding a final percentage of 0.3 in the cells. After 72 hours of incubation in CO2 incubator, XTT (Invitrogen, Cat. no X6493) was added to the wells. XTT was dissolved in serum free media at 1 mg/ml and absorbance readings were taken in spectrophotometer at 465 nm. The data was analysed using graph pad prism software. Positive control (100% survival)=Cells in complete media with 0.3% DMSO; Negative control/blank (0% survival)=Media alone containing 0.3% DMSO.
(§1) The compounds of the present invention were screened in the above mentioned assay and the results are tabulated below.

OCI-Ly10 cells = assay: Anti proliferative activity in OCI-Ly10 cells (CTG luminescence); conditions: Homo sapiens, OCI-Ly10, 72 h
Description: Example 80: Determination of Anti Proliferative Activity in OCI-Ly10 Cells
OCI-Ly10 cells (UHN Canada) were plated at 7500 cells/well in 96 well flat bottom plates (Corning, Cat. No CLS3904) using complete Iscove's Modified Dulbecco's Medium (IMDM. After 6 hours, compounds from the present invention were added to the cells from 10 mM stocks made in DMSO (Sigma, Cat. No D2650). Each concentration of compound was tested in triplicates with DMSO concentration not exceeding a final percentage of 0.1 in the cells. After 72 hours of incubation in CO2 incubator, CTG (Promega, Cat. No G7572) was added to the wells and Luminescence readings were taken in the plate reader. Percent inhibition in proliferation was calculated using Microsoft Excel software. Positive control (100% survival)=Cells in complete media with 0.1% DMSO; Negative control/blank (0% survival)=Media alone containing 0.1% DMSO.

NCI-H2122 cells = assay: Anti proliferative activity in NCI-H2122 cells by XTT assay; conditions: Homo sapiens, NCI-H2122, 192 h, H2122 cell line, at 30 μM, 8 days
Description: Example 79: Determination of Anti Proliferative Activity in NCI-H2122 Cells by XTT Assay
NCI-H2122 cells (ATCC CRL-5985) were plated at 1000 cells/well in 96 well flat clear bottom plates (Corning, Cat. No 3596) using complete RPMI-1640 media. After 24 hours, compounds of present invention were added to cells from 10 mM stocks made in DMSO (Sigma Cat no. D2650). Each concentration of compound was tested in triplicate with DMSO concentration not exceeding a final percentage of 0.3 in the cells. Complete RPMI-1640 media changed at Day 3 (72 hour) and Day 6 (144 hour) along with compounds of current invention. After 8 days (192 hour) of incubation assay terminated using 50 μl of XTT reagent (Invitrogen, Cat. no X6493). XTT reagent was made by dissolving 1 mg/mi XTT in serum free media with addition of 25 μM Phenazine methosulfate (sigma Cat. no P9625). Absorbance readings were taken in spectrophotometer at 465 nm. The data was analysed using graph pad prism software. Positive control (100% survival)=Cells in complete media with 0.3% DMSO; Negative control/blank (0% survival)=Media alone containing 0.3% DMSO.
as §1

IC50 (NCI-H1792 cells; 72 hours incubation): < 10 µM
Structure (SMILES): C=CS(=O)(=O)N[C@H]1CC[C@@H](NC(=O)NC(C)C#Cc2ccc(Cl)c(Cl)c2)CC1 (mixture of isomers) [Example 50, N-((1s, 4s)-4-(3-(4-(3,4-dichlorophenyl)but-3-yn-2-yl)ureido)cyclohexyl) ethenesulfonamide]
viability at 30 µM (NCI-H1792 cells; at 30 μM, 72 hours): 17%
inhibition at 1 µM (OCI-Ly10 cells; at 1 μM): 32%
inhibition at 10 µM (OCI-Ly10 cells; at 10 μM): 48%
viability at 30 µM (NCI-H2122 cells): 1%
